Experimental findings from PMC8496750, “Identification of the organic anion transporting polypeptides responsible for the hepatic uptake of the major metabolite of epyrifenacil, S‐3100‐CA, in mice” (Pharmacology Research & Perspectives, 2021) are described below.

Each structure is given as a SMILES string. Bounds are passed on as bounds.

For one series, the target named is T1, mouse Oatp1a4 (Mus musculus, UniProt Q9EP96).
T1 sequence (Q9EP96 1-670): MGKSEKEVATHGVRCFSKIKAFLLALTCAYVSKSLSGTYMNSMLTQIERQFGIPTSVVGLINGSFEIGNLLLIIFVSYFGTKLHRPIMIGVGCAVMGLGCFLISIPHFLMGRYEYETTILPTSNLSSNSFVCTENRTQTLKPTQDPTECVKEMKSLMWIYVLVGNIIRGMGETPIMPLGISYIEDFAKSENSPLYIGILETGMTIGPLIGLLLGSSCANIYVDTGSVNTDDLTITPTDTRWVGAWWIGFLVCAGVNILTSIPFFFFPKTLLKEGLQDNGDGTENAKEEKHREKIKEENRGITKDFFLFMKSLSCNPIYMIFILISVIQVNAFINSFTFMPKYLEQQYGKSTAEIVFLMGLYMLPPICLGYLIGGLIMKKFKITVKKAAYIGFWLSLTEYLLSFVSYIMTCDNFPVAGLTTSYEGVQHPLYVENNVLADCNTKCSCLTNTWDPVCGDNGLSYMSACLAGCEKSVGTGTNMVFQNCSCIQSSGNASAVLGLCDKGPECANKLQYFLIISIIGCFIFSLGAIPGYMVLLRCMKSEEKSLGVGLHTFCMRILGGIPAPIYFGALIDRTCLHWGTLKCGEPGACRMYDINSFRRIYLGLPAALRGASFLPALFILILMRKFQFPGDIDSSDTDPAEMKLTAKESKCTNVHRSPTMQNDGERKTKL
Put plainly: in vitro. To be noted: 293FT cells transiently transfected with mouse Oatp1a4, probe radiolabeled S‐3100‐CA.

The subject of a further series is various OATPs. Put plainly: Inhibition of S‐3100‐CA uptake by OATP inhibitors, various OATPs. It counts as in vitro ADME, mouse, human. To be noted: inhibitor at 100 μM. As to the method: 293FT cells were purchased from Thermo Fisher Scientific, Inc.. The cells were grown in Dulbecco's modified Eagle medium (supplemented with 4.5 g/L glucose and 2 mM L‐glutamine) at 37°C, 5% CO2, and 95% humidity. The cells were passaged 3 times per week by harvesting cells using trypsin and plating at a density of 1.0 × 10^4 cells/cm^2 in a 10 cm cell culture plate for maintenance culture. The 293FT cells were detached using trypsin and re‐seeded at a density of 2.5 × 10^4 cells/cm^2 in BioCoat™ Collagen I 6‐well plates (Corning Inc.) for transfection and then treated with 1.2 μg of plasmid vector and 3.2 μl of Lipofectamine™ 2000 Transfection Reagent (Thermo Fisher Scientific, Inc.) according to the manufacturer's instructions. After a 3‐h treatment, the transfection medium was replaced with a fresh cell culture medium and incubated at 37°C with 95% humidity and 5% CO2 until ready for the assay.
Transport experiments were conducted approximately 24 h post‐transfection. […] From the lysate, 1.0 ml was transferred to a vial containing 10 ml of Emulsifier Scintillator Plus to measure the radioactivity in the LSC. The protein concentration of the cell lysate was also measured using a Pierce™ BCA Protein Assay Kit (Thermo Fisher Scientific, Inc.), which was used to normalize, according to the cell number, the radioactivity in the cell lysate extract. […]

The target in another series is T2, mouse Oatp1a1 (Mus musculus, UniProt Q9QXZ6).
T2 sequence (Q9QXZ6 1-670): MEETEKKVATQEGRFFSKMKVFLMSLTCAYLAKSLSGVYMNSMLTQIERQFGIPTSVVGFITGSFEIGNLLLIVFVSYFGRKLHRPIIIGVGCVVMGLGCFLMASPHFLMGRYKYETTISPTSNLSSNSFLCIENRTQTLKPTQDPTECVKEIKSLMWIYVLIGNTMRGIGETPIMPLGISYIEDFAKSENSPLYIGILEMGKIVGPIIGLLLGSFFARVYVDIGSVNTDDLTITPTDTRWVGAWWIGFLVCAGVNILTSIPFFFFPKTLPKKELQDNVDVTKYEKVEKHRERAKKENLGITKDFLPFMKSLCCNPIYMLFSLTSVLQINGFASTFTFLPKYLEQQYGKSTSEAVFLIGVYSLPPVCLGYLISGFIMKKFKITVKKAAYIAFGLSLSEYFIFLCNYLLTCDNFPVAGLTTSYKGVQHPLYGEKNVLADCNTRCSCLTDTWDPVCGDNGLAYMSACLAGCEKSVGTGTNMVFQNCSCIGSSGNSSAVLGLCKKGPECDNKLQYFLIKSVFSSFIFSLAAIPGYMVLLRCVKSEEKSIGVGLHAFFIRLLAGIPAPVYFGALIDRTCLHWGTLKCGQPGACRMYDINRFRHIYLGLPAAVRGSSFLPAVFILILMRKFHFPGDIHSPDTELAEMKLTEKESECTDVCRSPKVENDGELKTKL
Put plainly: in vitro. To be noted: 293FT cells transiently transfected with mouse Oatp1a1, probe radiolabeled S‐3100‐CA.

Procedure for mouse Oatp1a1: (§1) Transport experiments were conducted approximately 24 h post‐transfection. The experiments were initiated by aspirating culture medium and addition of pre‐warmed radiolabeled substrate solution (final 1.0% of acetonitrile or 0.9% of ethanol in phosphate‐buffered saline (PBS[−])) to each well. After a 10‐min incubation, cells were washed twice with 1 ml of ice‐cold PBS(−) and lysed with 700 μl of 1.0 M NaOH for 3 h or more at room temperature. The lysate was transferred to a 1.5‐ml tube, and neutralized with 350 μl of 2.0 M HCl and 350 μl of 2.0% sodium dodecyl sulfate (SDS) solution. From the lysate, 1.0 ml was transferred to a vial containing 10 ml of Emulsifier Scintillator Plus to measure the radioactivity in the LSC. The protein concentration of the cell lysate was also measured using a Pierce™ BCA Protein Assay Kit (Thermo Fisher Scientific, Inc.), which was used to normalize, according to the cell number, the radioactivity in the cell lysate extract. The protein assay was performed in duplicate. Each sample type was assayed in triplicate wells, and each run was performed twice. […] Each sample type was assayed in triplicate wells.
Procedure for mouse Oatp1a4: as §1

Turning to `CO[C@H]1/C=C/O[C@@]2(C)Oc3c(C)c(O)c4c(O)c(cc(O)c4c3C2=O)NC(=O)/C(C)=C\C=C\[C@H](C)[C@H](O)[C@@H](C)[C@@H](O)[C@@H](C)[C@H](OC(C)=O)[C@@H]1C` [RSV, rifamycin SV], the inhibition at 10 min, 10 µM at mouse Oatp1a4 and against mouse Oatp1a1 was > 50% each time. Further, the “Inhibition of S‐3100‐CA uptake (in words)” value with various OATPs was “inhibited uptake via all OATPs other than human OATP2B1”.
